{"source": "DBAASP", "test_in_all_cases": "≥ marks a high value that may be exact or a test limit, other limits are often not marked, values filed in µg/mL are converted to µM", "key": {"[1]": {"system": "Staphylococcus aureus PCM 1944"}, "[2]": {"system": "Escherichia coli PCM 2057"}, "[3]": {"system": "Streptococcus sanguinis NY101"}, "[4]": {"system": "Pseudomonas aeruginosa PAK"}, "[5]": {"system": "Streptococcus mutans UA159"}, "[6]": {"system": "Streptococcus mitis ATCC 903"}, "[7]": {"system": "Staphylococcus aureus"}, "[8]": {"system": "Streptococcus gordonii Challis DL1"}, "[9]": {"system": "Candida albicans"}, "[10]": {"system": "Staphylococcus aureus FDA 209P JC-1"}, "[11]": {"system": "Escherichia coli NIHJ JC-2"}, "[12]": {"system": "Bacillus subtilis ATCC 6633"}, "[13]": {"system": "Staphylococcus aureus ATCC 6538P"}, "[14]": {"system": "Escherichia coli JM109"}}, "data": [{"compound": "CC[C@H](C)[C@H](NC(=O)[C@H](CC(N)=O)NC(=O)[C@@H](NC(=O)[C@H](C)N)C(C)C)C(=O)N1CCC[C@H]1C(=O)N[C@@H](Cc1ccccc1)C(=O)N[C@@H](CCCCN)C(=O)N[C@H](C(=O)N[C@@H](Cc1cnc[nH]1)C(=O)N[C@@H](Cc1ccccc1)C(=O)N[C@@H](CCCN=C(N)N)C(=O)O)C(C)C", "note": "[AVNIPFKVHFR]", "values": [{"measurement": "MIC", "setting": "[1]", "value": "≥ 753", "unit": "µM"}, {"measurement": "MIC", "setting": "[2]", "value": "≥ 753", "unit": "µM"}]}, {"compound": "CC[C@H](C)[C@H](N)C(=O)N[C@@H](CCCCN)C(=O)N[C@@H](CCC(N)=O)C(=O)N[C@@H](CC(C)C)C(=O)N[C@@H](CC(C)C)C(=O)N[C@@H](Cc1cnc[nH]1)C(=O)N[C@@H](Cc1ccccc1)C(=O)N[C@@H](Cc1ccccc1)C(=O)N[C@@H](CCC(N)=O)C(=O)N[C@@H](CCCN=C(N)N)C(=O)N[C@@H](Cc1ccccc1)C(=O)NCC(=O)NCC(=O)NCC(=O)N[C@@H](Cc1ccccc1)C(=O)N[C@H](C(=O)N[C@@H](CCCCN)C(=O)N[C@@H](Cc1cnc[nH]1)C(=O)N[C@@H](Cc1ccccc1)C(=O)N[C@H](C(=O)N[C@@H](Cc1cnc[nH]1)C(=O)N[C@@H](CCCN=C(N)N)C(=O)N[C@@H](Cc1ccccc1)C(N)=O)[C@@H](C)CC)[C@@H](C)CC", "note": "[IKQLLHFFQRFGGGFIKHFIHRF]", "values": [{"measurement": "MIC", "setting": "[3]", "value": 11.1, "unit": "µM"}, {"measurement": "MIC", "setting": "[4]", "value": "≥ 43.5", "unit": "µM"}, {"measurement": "MIC", "setting": "[5]", "value": 2.78, "unit": "µM"}, {"measurement": "MIC", "setting": "[6]", "value": 5.57, "unit": "µM"}, {"measurement": "MIC", "setting": "[7]", "value": 21.7, "unit": "µM"}, {"measurement": "MIC", "setting": "[8]", "value": 11.1, "unit": "µM"}]}, {"compound": "CC[C@H](C)[C@H](NC(=O)CNC(=O)[C@H](C)NC(=O)[C@H](CC(C)C)NC(=O)[C@@H](NC(=O)[C@@H]1CCCN1C(=O)[C@H](CC(C)C)NC(=O)[C@@H](N)Cc1ccccc1)C(C)C)C(=O)N[C@@H](C)C(=O)N[C@@H](C)C(=O)N[C@@H](CCCCN)C(=O)N[C@H](C(=O)N[C@H](C(=O)N1CCC[C@H]1C(=O)N[C@@H](C)C(=O)N[C@@H](CC(C)C)C(=O)N[C@@H](Cc1ccccc1)C(=O)N[C@H]1CSSC[C@@H](C(=O)O)NC(=O)[C@H](CCCCN)NC(=O)[C@H](CCCCN)NC(=O)[C@H]([C@@H](C)O)NC(=O)[C@H]([C@@H](C)CC)NC(=O)[C@H](CCCCN)NC1=O)C(C)C)C(C)C", "note": "[FLPVLAGIAAKVVPALFCKITKKC]", "values": [{"measurement": "MIC", "setting": "[9]", "value": "> 51.4", "unit": "µM"}, {"measurement": "MIC", "setting": "[10]", "value": 3.16, "unit": "µM"}, {"measurement": "MIC", "setting": "[11]", "value": 13.4, "unit": "µM"}, {"measurement": "MIC", "setting": "[12]", "value": 0.79, "unit": "µM"}]}, {"compound": "CC[C@H](C)[C@H](NC(=O)[C@H](C)NC(=O)[C@H](CC(C)C)NC(=O)[C@H](CS)NC(=O)[C@H](Cc1cnc[nH]1)NC(=O)[C@H](C)N)C(=O)NCC(=O)N[C@@H](CCCN=C(N)N)C(=O)N[C@@H](CCCN=C(N)N)C(N)=O", "note": "[AHCLAIGRR]", "values": [{"measurement": "MIC", "setting": "[13]", "value": 6.02, "unit": "µM"}, {"measurement": "MIC", "setting": "[14]", "value": 16.1, "unit": "µM"}, {"measurement": "MIC", "setting": "[7]", "value": "> 64.2", "unit": "µM"}]}]}
